Experiment [1] deals with human recombinant Aurora B (Homo sapiens (Human), UniProt Q96GD4). Briefly: Aurora B Kinase Biochemical Assay (ADP-Glo). The settings on record: ratio of Aurora B IC50 to PLK4 IC50 (selectivity). An outline of the steps: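 IC50 derived by four-parameter nonlinear fit of ADP-Glo luminescence (ADP produced). Compound was preincubated 15 min at RT with 20 nM recombinant human Aurora B, in 50 mM HEPES pH 7.5, 10 mM MgCl2, 1 mM EGTA, 1 mM DTT, 0.01% Brij-35/BSA.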
In general terms: ADP-Glo turns the ADP formed in a reaction into a luminescent signal.

Experiment [2] concerns the target human recombinant Aurora A (Homo sapiens (Human), UniProt O14965). The experiment is described as follows: Aurora A Kinase Biochemical Assay (ADP-Glo). The note with it: ratio of Aurora A IC50 to PLK4 IC50 (selectivity).
The target in experiment [3] is human recombinant PLK4 (Homo sapiens (Human), UniProt O00444). Briefly: PLK4 Biochemical Assay (ADP-Glo). The settings on record: 0.5 nM PLK4, 8.0 µM ATP, 4.7 µM MBP, 6 hours at RT. An outline of the steps: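 Luminescent ADP-Glo detection quantified ADP production, with ATP depletion for 40 min and detection for 30 min at room temperature. Compound and PLK4 (1.0 nM stock addition) were preincubated 15 min in HEPES pH 7.5 buffer containing MgCl2, EGTA, DTT, Brij-35 and BSA. IC50 values were obtained by four-parameter nonlinear regression.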
human recombinant PLK4, sequence (O00444 whole entry): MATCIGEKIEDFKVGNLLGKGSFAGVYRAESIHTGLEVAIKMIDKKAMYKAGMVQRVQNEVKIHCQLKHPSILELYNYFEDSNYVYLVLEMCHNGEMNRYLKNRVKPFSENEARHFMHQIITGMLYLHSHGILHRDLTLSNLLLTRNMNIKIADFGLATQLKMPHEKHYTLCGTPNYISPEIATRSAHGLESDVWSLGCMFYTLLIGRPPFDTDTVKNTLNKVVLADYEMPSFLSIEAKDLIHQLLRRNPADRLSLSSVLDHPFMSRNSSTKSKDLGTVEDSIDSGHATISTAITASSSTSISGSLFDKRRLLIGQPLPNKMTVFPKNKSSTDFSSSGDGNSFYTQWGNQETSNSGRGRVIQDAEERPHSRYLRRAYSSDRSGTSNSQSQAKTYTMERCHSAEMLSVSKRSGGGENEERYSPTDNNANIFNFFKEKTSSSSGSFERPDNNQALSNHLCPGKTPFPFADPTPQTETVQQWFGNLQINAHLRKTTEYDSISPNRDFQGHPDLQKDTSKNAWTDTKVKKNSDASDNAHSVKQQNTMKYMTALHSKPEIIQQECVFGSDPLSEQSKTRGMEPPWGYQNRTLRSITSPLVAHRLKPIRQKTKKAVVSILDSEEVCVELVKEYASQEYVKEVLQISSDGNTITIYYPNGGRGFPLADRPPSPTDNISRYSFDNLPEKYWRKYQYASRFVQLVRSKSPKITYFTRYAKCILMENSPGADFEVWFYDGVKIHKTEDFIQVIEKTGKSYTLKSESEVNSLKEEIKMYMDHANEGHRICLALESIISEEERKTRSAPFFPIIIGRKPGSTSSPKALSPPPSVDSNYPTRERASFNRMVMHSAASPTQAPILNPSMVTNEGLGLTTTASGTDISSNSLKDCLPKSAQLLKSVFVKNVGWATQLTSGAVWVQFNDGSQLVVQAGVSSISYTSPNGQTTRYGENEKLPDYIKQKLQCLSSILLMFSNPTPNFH

human recombinant Aurora A, sequence (O14965 whole entry): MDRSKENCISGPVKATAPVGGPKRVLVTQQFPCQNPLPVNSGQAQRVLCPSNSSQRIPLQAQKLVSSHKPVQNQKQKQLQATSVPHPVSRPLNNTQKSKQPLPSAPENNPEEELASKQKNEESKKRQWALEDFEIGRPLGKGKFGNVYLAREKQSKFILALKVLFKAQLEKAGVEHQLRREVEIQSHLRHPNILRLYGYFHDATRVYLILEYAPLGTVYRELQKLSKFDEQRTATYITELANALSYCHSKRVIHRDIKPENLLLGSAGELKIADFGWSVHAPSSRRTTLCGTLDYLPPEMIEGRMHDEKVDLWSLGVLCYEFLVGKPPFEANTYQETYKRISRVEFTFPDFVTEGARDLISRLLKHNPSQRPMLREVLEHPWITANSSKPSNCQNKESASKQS
human recombinant Aurora B, sequence (Q96GD4 whole entry): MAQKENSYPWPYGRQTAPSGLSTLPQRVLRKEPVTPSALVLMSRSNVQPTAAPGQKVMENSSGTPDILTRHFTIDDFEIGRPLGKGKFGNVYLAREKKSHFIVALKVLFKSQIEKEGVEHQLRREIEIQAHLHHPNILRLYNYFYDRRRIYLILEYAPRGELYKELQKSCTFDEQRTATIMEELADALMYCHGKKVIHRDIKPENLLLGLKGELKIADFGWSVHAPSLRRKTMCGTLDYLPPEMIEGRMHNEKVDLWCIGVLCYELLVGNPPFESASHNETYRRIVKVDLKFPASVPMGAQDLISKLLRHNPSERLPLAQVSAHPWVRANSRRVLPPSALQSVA

Take `COc1ccc2c(c1)[C@]1(C[C@H]1c1ccc3c(Nc4cn(C)nc4C)n[nH]c3c1)C(=O)N2` [Example 63, (1R,2S)-2-{3-[(1,3-dimethyl-1H-pyrazol-4-yl)amino]-1H-indazol-6-yl}-5′-methoxyspiro[cyclopropane-1,3′-indol]-2′(1′H)-one]: the “[Aurora B IC50 (nM)]/[PLK4 IC50 (nM)]” value in experiment [1] was determined as 16.69. Also, the “[Aurora A IC50 (nM)]/[PLK4 IC50 (nM)]” value in experiment [2] is recorded as 56.84. In experiment [3], the IC50 is 72.2 nM.
Turning to `COc1ccc2c(c1)[C@]1(C[C@H]1c1ccc3c(Nc4cn(C)nc4C(F)(F)F)n[nH]c3c1)C(=O)N2` [Example 64, (1R,2S)-5′-methoxy-2-(3-{[1-methyl-3-(trifluoromethyl)-1H-pyrazol-4-yl]amino)-1H-indazol-6-yl)spiro[cyclopropane-1,3′-indol]-2′(1′H)-one], the “[Aurora B IC50 (nM)]/[PLK4 IC50 (nM)]” value in experiment [1] is 98.84. For the same compound, the “[Aurora A IC50 (nM)]/[PLK4 IC50 (nM)]” value in experiment [2] turned out to be 210.2116. For the same compound, the IC50 in experiment [3] stood at 87 nM.
For the compound `COc1ccc2c(c1)[C@]1(C[C@H]1c1ccc3c(Nc4cnn(C)c4)n[nH]c3c1)C(=O)N2` [Example 65], the “[Aurora B IC50 (nM)]/[PLK4 IC50 (nM)]” value in experiment [1] was determined as 5.356. In addition, the “[Aurora A IC50 (nM)]/[PLK4 IC50 (nM)]” value in experiment [2] came out at 82.48. The IC50 in experiment [3] was determined as 44.2 nM.
As to `COc1ccc2c(c1)[C@]1(C[C@H]1c1ccc3c(Nc4cn(C)nc4C#N)n[nH]c3c1)C(=O)N2` [Example 66, 4-({6-[(1R,2S)-5′-methoxy-2′-oxo-1′,2′-dihydrospiro[cyclopropane-1,3′-indol]-2-yl]-1H-indazol-3-yl}amino)-1-methyl-1H-pyrazole-3-carbonitrile], the “[Aurora B IC50 (nM)]/[PLK4 IC50 (nM)]” value in experiment [1] was determined as 7.607. Moreover, the “[Aurora A IC50 (nM)]/[PLK4 IC50 (nM)]” value in experiment [2] is listed as 21.37. Further, the half-inhibitory concentration (IC50) in experiment [3] worked out at 2340 nM.
The matching figures for `COc1ccc2c(c1)[C@]1(C[C@H]1c1ccc3c(Nc4cc(C)nn4C)n[nH]c3c1)C(=O)N2` [Example 74]: 37.14, 293.0556 and 3.31 nM.
For `COc1ccc2c(c1)[C@]1(C[C@H]1c1ccc3c(Nc4c(OC)cnn4C)n[nH]c3c1)C(=O)N2` [Example 75, (1R,2S)-5′-methoxy-2-{3-[(4-methoxy-1-methyl-1H-pyrazol-5-yl)amino]-1H-indazol-6-yl}spiro[cyclopropane-1,3′-indol]-2′(1′H)-one], in experiment [1], the “[Aurora B IC50 (nM)]/[PLK4 IC50 (nM)]” value was determined as 23.28. Further, the “[Aurora A IC50 (nM)]/[PLK4 IC50 (nM)]” value in experiment [2] was determined as 173.4097. For the same compound, the IC50 in experiment [3] is 157 nM.
For `COc1ccc2c(c1)[C@]1(C[C@H]1c1ccc3c(Nc4nn(C)cc4OC)n[nH]c3c1)C(=O)N2` [Example 79, (1R,2S)-5′-methoxy-2-{3-[(4-methoxy-1-methyl-1H-pyrazol-3-yl)amino]-1H-indazol-6-yl}spiro[cyclopropane-1,3′-indol]-2′(rH)-one] the same measures were 6.986, 210.5378 and 91.9 nM.
The matching figures for `COc1ccc2c(c1)[C@]1(C[C@H]1c1ccc3c(Nc4nc(C)cnc4C)n[nH]c3c1)C(=O)N2.O=C(O)C(F)(F)F` [Example 82, (1R,2S)-2-{3-[(3,6-dimethylpyrazin-2-yl)amino]-1H-indazol-6-yl}-5′-methoxyspiro[cyclopropane-1,3′-indol]-2′(1′H)-one]: 38.55, 187.8524 and 6.21 nM.
The matching figures for `COc1ccc2c(c1)[C@]1(C[C@H]1c1ccc3c(Nc4nnccc4OC)n[nH]c3c1)C(=O)N2` [Example 90, (1R,2S)-5′-methoxy-2-{3-[(4-methozypyridazin-3-yl)amino]-1H-indazol-6-yl}spiro[cyclopropane-1,3′-indol]-2′(1′H)-one]: 44.33, 1505.334 and 17.8 nM.
Regarding `CCn1nc(C2CC2)cc1Nc1n[nH]c2cc([C@@H]3C[C@@]34C(=O)Nc3ccc(OC)cc34)ccc12` [Example 92, (1R,2S)-2-{3-[(3-cyclopropyl-1-ethyl-1H-pyrazol-5-yl)amino]-1H-indazol-6-yl}-5′-methoxyspiro[cyclopropane-1,3′-indol]-2′(1′H)-one], the “[Aurora B IC50 (nM)]/[PLK4 IC50 (nM)]” value in experiment [1] is recorded as 76.36. For the same compound, in experiment [2], the “[Aurora A IC50 (nM)]/[PLK4 IC50 (nM)]” value came to 132.8355. Moreover, the half-inhibitory concentration (IC50) in experiment [3] was found to be 8.84 nM.
The matching figures for `COc1ccc2c(c1)[C@]1(C[C@H]1c1ccc3c(Nc4nc(CC(C)(C)O)nc(N5CCOCC5)c4OC)n[nH]c3c1)C(=O)N2` [Example 93, (1R,2S)-2-(3-{[2-(2-hydroxy-2-methylpropyl)-5-methoxy-6-(morpholin-4-yl)pyrimidin-4-yl]amino}-1H-indazol-6-yl)-5′-methoxyspiro[cyclopropane-1,3′-indol]-2′(1′H)-one]: 1055.053, 1733.361 and 24.3 nM.
The matching figures for `COc1ccc2c(c1)[C@]1(C[C@H]1c1ccc3c(Nc4cc(N5CCOCC5)nc(C(C)C)n4)n[nH]c3c1)C(=O)N2` [Example 102, (1R,2S)-5′-methoxy-2-(3-{[6-(morpholin-4-yl)-2-(propan-2-yl)pyrimidin-4-yl]amino}-1H-indazol-6-yl)spiro[cyclopropane-l,3′-indol]-2′(1′H)-one]: 74.7, 114.7355 and 6.16 nM.
For `COc1ccc2c(c1)[C@]1(C[C@H]1c1ccc3c(Nc4nc(N5CCOCC5)ncc4Cl)n[nH]c3c1)C(=O)N2` [Example 103, (1R,2S)-2-(3-{[5-chloro-2-(morpholin-4-yl)pyrimidin-4-yl]amino}-1H-indazol-6-yl)-5′-methozyspiro[cyclopropano-1,3′-indol]-2′(1′H)-one] the same measures were 977.1102, 416.6667 and 2.8 nM.
On to `COc1ccc2c(c1)[C@]1(C[C@H]1c1ccc3c(Nc4nc(C5CNC5)cnc4OC)n[nH]c3c1)C(=O)N2` [Example 110, (1R,2S)-2-(3-{[6-(azetidin-3-yl)-3-methoxypyrazin-2-yl]amino}-1H-indazol-6-yl)-5′-methoxyspiro[cyclopropane-1,3′-indol]-2′(1′H)-one], for which the “[Aurora B IC50 (nM)]/[PLK4 IC50 (nM)]” value in experiment [1] worked out at 232.1904. Besides, the “[Aurora A IC50 (nM)]/[PLK4 IC50 (nM)]” value in experiment [2] was 679.6315. Moreover, the IC50 in experiment [3] was found to be 3.91 nM.
The matching figures for `COc1ccc2c(c1)[C@]1(C[C@H]1c1ccc3c(Nc4cc(N5CC(O)C5)nc(C(C)C)n4)n[nH]c3c1)C(=O)N2` [Example 111, (1R,2S)-2-(3-{[6-(3-hydroxyazetidin-1-yi)-2-(propan-2,yl)pyrimidin-4-yl]amino}-1H-indazol-6-yl)-5′-inethoxyspiro[cyclopropane-1,3′-indol]-2′(1′H)-one]: 144.4951, 234.7231 and 1.53 nM.
For `COc1ccc2c(c1)[C@]1(C[C@H]1c1ccc3c(Nc4cc(C)nn4CC(F)F)n[nH]c3c1)C(=O)N2` [Example 112, (1R,2S)-2-(3-{[1-(2,2-difluoroethyl)-3-methyl-1H-pyrazol-5-yl]amino}-1H-indazol-6-yl)-5′-methoxyspiro[cyclopropane-1,3′-indol]-2′(1′H)-one] the same measures were 121.8987, 197.5105 and 23.7 nM.

What is called IC50 is the point on the concentration scale where inhibition reaches its midpoint.
